Paper PMC8019741, “Efficacy Prediction of Four Pharmaceutical Formulations for Intramammary Administration Containing Aloe vera (L.) Burm. f. Combined With Ceftiofur or Cloxacillin in Lactating Cows as an Alternative Therapy to Treat Mastitis Caused by Staphylococcus aureus” (Frontiers in Veterinary Science, 2021)

Test system: Staphylococcus aureus ATCC 29213
Assay: Macrodilution MIC test (CLSI)
Assay type: cell-based
Conditions: for MIC of the antimicrobial not combined: alone
Experimental: A macrodilution test was performed to determine the MIC for the different combinations, following the recommendations from the CLSI ([47]).
Aloe vera gel extract (1,200 mg/ml) was diluted in Muller-Hinton II (Cation Adjusted) Broth (MHBCA) from BD® (Franklin Lakes, NJ, USA) up to a range of concentrations from 150 to 1,200 mg/ml. In addition, the standard solutions of cloxacillin and ceftiofur were diluted in MHBCA to prepare 2-fold serial dilutions at a concentrations range of 0.015–128 μg/ml.
Staphylococcus aureus ATCC 29213 (KWIK-STIK) was sourced from Microbiologics® (St. Cloud, MN, USA) and used to test the MIC for the different combinations of Aloe vera and cloxacillin or ceftiofur. First, S. aureus was rehydrated with Trypticase™ Soy Broth from BD® (Franklin Lakes, NJ, USA). Then, these bacteria were cultured in the Trypticase™ Soy Broth from BD® (Franklin Lakes, NJ, USA) with 5% sheep defibrinated blood (Franklin Lakes, NJ, USA) at an incubation temperature of 36 ± 1°C for 24 h. Once incubation ended, bacteria were preserved at −80°C using cryobank vials, while waiting for further processing. […] These cultured bacteria were then suspended in MHBCA from BD® (Franklin Lakes, NJ, USA), and the optical density was adjusted according to the McFarland Standard Solution to standardize the number of bacteria. From this broth, dilutions containing 5 × 10^5 UFC/ml were incubated along with dilutions of a combination of Aloe vera extract and antimicrobials. […] Additionally, S. aureus bacteria were incubated separately, in different tubes, with the extract, cloxacillin, and ceftiofur dilutions.

MIC (Staphylococcus aureus, ATCC29213, calculated from the MIC of Aloe vera in the combination and the concentration of aloin A + aloin B in the extract) | MIC of the antimicrobial not combined | SMILES
0.00366 µg/mL | – | O=C1c2c(O)cccc2C([C@@H]2O[C@H](CO)[C@@H](O)[C@H](O)[C@H]2O)c2cc(CO)cc(O)c21 (stereo partly drawn) [aloin]
– | 0.25 µg/mL | CO/N=C(\C(=O)N[C@@H]1C(=O)N2C(C(=O)O)=C(CSC(=O)c3ccco3)CS[C@H]12)c1csc(N)n1 [ceftiofur]
– | 0.25 µg/mL | Cc1onc(-c2ccccc2Cl)c1C(=O)N[C@@H]1C(=O)N2[C@@H]1SC(C)(C)[C@@H]2C(=O)O [cloxacillin]
